Structures can show the parent of a compound that is named as a salt.
Experiments:
TNF-α = assay: Cytokine assay, TNF-α release from PBMC; assay type: cell-based; conditions: 1 μg/mL LPS; for IC50: supernatant at 24 hours; for inhibition at 10 µM: 24 hours
Protocol: (§1) The ability of the compounds described herein to inhibit pro-inflammatory cytokines or phsophodiesterases were tested.
(§2) Frozen human peripheral blood mononucleocytes (PBMC) were thawed and centrifuged. Cryopreservation media was aspirated off of the cell pellet, and the cells were resuspended in fresh culture media (CM) comprising RPMI 1640 and 10% FBS in 96 well plates. Test article was dissolved in DMSO to form a 10 mM sample (DMSO, 100%). The 10 mM samples were diluted to 100 μM in CM (DMSO, 1%), then further diluted to 10, 1, 0.1, 0.01 μM in 200 μL of CM (n=3). […] IL-23 was assayed using a commercial ELISA kit (R&D Systems).

[1] = test system: T1, PDE4 partially purified from human U-937 myeloid leukemia cells; assay: PDE4 Assay (enzyme from U-937 cells, [3H]cAMP); assay type: biochemical; conditions: PDE4 from U-937 cells, Tris buffer pH 7.5, 20 minutes at 25° C.
T1 construct: PDE4 partially purified from human U-937 myeloid leukemia cells was used
Protocol: Test article and/or vehicle was incubated with 0.2 mg enzyme and 1 mM cAMP containing 0.01 mM [3H]cAMP in Tris buffer pH 7.5 for 20 minutes at 25° C. The reaction was terminated by boiling for 2 minutes and the resulting AMP is converted to adenosine by addition of 10 mg/ml snake venom nucleotidase and further incubation at 37° C. for 10 minutes. Unhydrolyzed cAMP is bound to AG1-X2 resin, and remaining [3H]Adenosine in the aqueous phase is quantitated by scintillation counting.

IL-2 = assay: Cytokine assay, IL-2 release from PBMC; assay type: cell-based; conditions: human PBMC, 20 ug/mL PHA; for IC50: supernatant at 24 hours; for inhibition at 10 µM: 24 hours
Protocol: as §1, §2

IFN-γ = assay: Cytokine assay, IFN-γ release from PBMC; assay type: cell-based; conditions: human PBMC, 20 ug/mL PHA; for IC50: supernatant at 24 hours; for inhibition at 10 µM: 24 hours
Protocol: as §1, §2

IL-5 = assay: Cytokine assay, IL-5 release from PBMC; assay type: cell-based; conditions: human PBMC, 20 ug/mL PHA; for IC50: supernatant at 48 hours; for inhibition at 10 µM: 48 hours
Protocol: as §1, §2

IL-10 = assay: Cytokine assay, IL-10 release from PBMC; assay type: cell-based; conditions: human PBMC, 20 ug/mL PHA; for IC50: supernatant at 48 hours; for inhibition at 10 µM: 48 hours
Protocol: as §1, §2

| SMILES | IC50 (TNF-α; Homo sapiens, PBMC, 24 h) | IC50 [1] | IC50 (IL-2) | IC50 (IFN-γ) | IC50 (IL-5) | IC50 (IL-10) | further results |
| --- | --- | --- | --- | --- | --- | --- | --- |
| N#Cc1ccc(Oc2ccc3c(c2)COB3O)c(OCC2CC2)c1 [D134, 3-(cyclopropylmethoxy)-4-(1-hydroxy-1,3-dihydrobenzo[c][1,2]oxaborol-5-yloxy)benzonitrile] | < 1 µM | < 1 µM | – | – | – | – | – |
| CCOC(=O)c1ccc(Oc2ccc3c(c2)COB3O)c(O)c1 [D19, 5-(4-Ethoxycarbonyl-2-hydroxyphenoxy)-1,3-dihydro-1-hydroxy-2,1-benzoxaborole] | 1 to 4 µM | < 1 µM | 1 to 4 µM | 1 to 4 µM | – | – | – |
| CN1CCN(C(=O)c2ccc(Oc3ccc4c(c3)COB4O)cc2)CC1 [D79, [4-(1-Hydroxy-1,3-dihydro-benzo[c][1,2]oxaborol-5-yloxy)-phenyl]-(4-methyl-piperazin-1-yl)-methanone] | > 10 µM | – | > 10 µM | > 10 µM | > 10 µM | > 10 µM | – |
| CN(C)CCOC(=O)c1ccc(Oc2ccc3c(c2)COB3O)cc1 [D75, 4-(1-Hydroxy-1,3-dihydro-benzo[c][1,2]oxaborol-5-yloxy)-benzoic acid 2-dimethylamino-ethyl ester] | 1 to 4 µM | – | 1 to 4 µM | 4 to 10 µM | 4 to 10 µM | > 10 µM | – |
| N#Cc1ccc(Oc2ccc3c(c2)COB3O)cc1C(=O)O [D8, 5-(3-Carboxy-4-cyanophenoxy)-1,3-dihydro-1-hydroxy-2,1-benzoxaborole] | > 10 µM | – | 1 to 4 µM | > 10 µM | > 10 µM | > 10 µM | – |
| CN(C)CCNC(=O)c1ccc(Oc2ccc3c(c2)COB3O)cc1 [D81, N-(2-Dimethylamino-ethyl)-4-(1-hydroxy-1,3-dihydro-benzo[c][1,2]oxaborol-5-yloxy)-benzamide] | > 10 µM | – | > 10 µM | > 10 µM | 4 to 10 µM | > 10 µM | – |
| N#Cc1ccc(Oc2ccc3c(c2)COB3O)c(OCC2CCCC2)c1 [D135, 3-(cyclopentylmethoxy)-4-(1-hydroxy-1,3-dihydrobenzo[c][1,2]oxaborol-5-yloxy)benzonitrile] | < 1 µM | < 1 µM | – | – | – | – | – |
| N#Cc1cc(CNC=O)ccc1Oc1ccc2c(c1)COB2O [D137, 5-[2-Cyano-4-(formylaminomethyl)phenoxy]-1,3-dihydro-1-hydroxy-2,1-benzoxaborole] | 1 to 4 µM | – | – | – | – | – | inhibition at 10 µM (IL-2): 60 to 90%; inhibition at 10 µM (IFN-γ): 60 to 90%; inhibition at 10 µM (IL-5): 30 to 60%; inhibition at 10 µM (IL-10): 30 to 60% |
| O=C(O)c1cnc(Oc2ccc3c(c2)COB3O)c(Cl)c1 [D49, 5-Chloro-6-(1-hydroxy-1,3-dihydrobenzo[c][1,2]oxaborol-5-yloxy)nicotinic acid] | 4 to 10 µM | 1 to 4 µM | 4 to 10 µM | 4 to 10 µM | – | – | – |
| CCOC(=O)c1ccc(Oc2ccc3c(c2)COB3O)c(OC2CCCC2)c1 [D21, 5-[4-Ethoxycarbonyl-2-(cyclopentyloxy)phenoxy]-1,3-dihydro-1-hydroxy-2,1-benzoxaborole] | 1 to 4 µM | < 1 µM | < 1 µM | < 1 µM | – | – | – |
| CC(C)COc1nc(Oc2ccc3c(c2)COB3O)ccc1C#N [D136, 6-(1-Hydroxy-1,3-dihydro-benzo[c][1,2]oxaborol-5-yloxy)-2-isobutoxy-nicotinonitrile] | < 1 µM | < 1 µM | – | – | – | – | – |
| O=C(NCCO)c1ccc(Oc2ccc3c(c2)COB3O)cc1 [D77, 4-(1-Hydroxy-1,3-dihydro-benzo[c][1,2]oxaborol-5-yloxy)-N-(2-hydroxy-ethyl)-benzamide] | > 10 µM | – | 1 to 4 µM | 1 to 4 µM | > 10 µM | 4 to 10 µM | – |
| N#Cc1ccc(Oc2ccc3c(c2)COB3O)cc1OCC(=O)O [D39, [2-Cyano-5-(1-hydroxy-1,3-dihydro-benzo[c][1,2]oxaborol-5-yloxy)-phenoxy]-acetic acid] | – | – | – | – | – | – | inhibition at 10 µM (TNF-α; human PBMC): 30 to 60%; inhibition at 10 µM (IL-2): 30 to 60%; inhibition at 10 µM (IFN-γ): 30 to 60%; inhibition at 10 µM (IL-5): < 30% |
| CCOC(=O)c1ccc(Oc2ccc3c(c2)COB3O)c(OC)c1 [D20, 5-(4-Ethoxycarbonyl-2-methoxyphenoxy)-1,3-dihydro-1-hydroxy-2,1-benzoxaborole] | < 1 µM | < 1 µM | < 1 µM | < 1 µM | – | – | – |
| N#Cc1ccc(Oc2ccc3c(c2)COB3O)nc1O [D108, 2-hydroxy-6-(1-hydroxy-1,3-dihydrobenzo[c][1,2]oxaborol-5-yloxy)nicotinonitrile] | – | 4 to 10 µM | – | – | – | – | – |
| CC(C)(C)/[N+]([O-])=C/c1ccc(Oc2ccc3c(c2)COB3O)nc1 [D70, (Z)—N-((6-(1-hydroxy-1,3-dihydrobenzo[c][1,2]oxaborol-5-yloxy)pyridin-3-yl)methylene)-2-methylpropan-2-amine oxide] | 1 to 4 µM | 1 to 4 µM | < 1 µM | 1 to 4 µM | – | – | – |
| N#Cc1ccc(Oc2ccc3c(c2)COB3O)c(OCC(=O)O)c1 [D17, 5-[2-(Carboxymethoxy)-4-cyanophenoxy]-1,3-dihydro-1-hydroxy-2,1-benzoxaborole] | 4 to 10 µM | < 1 µM | > 10 µM | > 10 µM | – | – | – |
| N#Cc1ccc(Oc2ccc3c(c2)COB3O)c(C=O)c1 [D23, 5-(4-Cyano-2-formylphenoxy)-1,3-dihydro-1-hydroxy-2,1-benzoxaborole] | 4 to 10 µM | – | – | – | – | – | – |
| CC1CCN(C(=O)COc2cc(Oc3ccc4c(c3)COB4O)ccc2C#N)CC1 [D42, 4-(1-Hydroxy-1,3-dihydro-benzo[c][1,2]oxaborol-5-yloxy)-2-[2-(4-methyl-piperidin-1-yl)-2-oxo-ethoxy]-benzonitrile] | – | – | – | – | – | – | inhibition at 10 µM (TNF-α; human PBMC): 60 to 90%; inhibition at 10 µM (IL-2): 90 to 100%; inhibition at 10 µM (IFN-γ): 90 to 100%; inhibition at 10 µM (IL-5): 60 to 90%; inhibition at 10 µM (IL-10): 60 to 90% |
| O=C(O)c1ccc(Oc2ccc3c(c2)COB3O)c(O)c1 [D18, 5-(4-Carboxy-2-hydroxyphenoxy)-1,3-dihydro-1-hydroxy-2,1-benzoxaborole] | > 10 µM | – | > 10 µM | > 10 µM | – | – | – |
| C[NH+]1CCN(C(=O)COc2cc(Oc3ccc4c(c3)COB4O)ccc2C#N)CC1 [D43, 4-(1-Hydroxy-1,3-dihydro-benzo[c][1,2]oxaborol-5-yloxy)-2-[2-(4-methyl-piperazin-1-yl)-2-oxo-ethoxy]-benzonitrile hexafluorophosphate] | – | – | – | – | – | – | inhibition at 10 µM (TNF-α; human PBMC): < 30%; inhibition at 10 µM (IL-2): 90 to 100%; inhibition at 10 µM (IFN-γ): 60 to 90%; inhibition at 10 µM (IL-5): 60 to 90%; inhibition at 10 µM (IL-10): 60 to 90% |
| N#Cc1ccc(Oc2ccc3c(c2)COB3O)c(OC2CCCC2)c1 [D133, 3-(cyclopentyloxy)-4-(1-hydroxy-1,3-dihydrobenzo[c][1,2]oxaborol-5-yloxy)benzonitrile] | < 1 µM | < 1 µM | – | – | – | – | – |
| COc1nc(Oc2ccc3c(c2F)COB3O)ccc1C#N [D114, 6-(4-Fluoro-1-hydroxy-1,3-dihydrobenzo[c][1,2]oxaborol-5-yloxy)-2-methoxynicotinonitrile] | < 1 µM | – | < 1 µM | < 1 µM | < 1 µM | > 10 µM | – |
| CC(C)(C)Nc1nc(Oc2ccc3c(c2)COB3O)ccc1C#N [D129, 2-tert-butylamino-6-(1-hydroxy-1,3-dihydro-benzo[c][1,2]oxaborol-5-yloxy)-nicotinonitrile] | < 1 µM | < 1 µM | – | – | – | – | – |
| CC(=O)N1CCN(C(=O)c2ccc(Oc3ccc4c(c3)COB4O)cc2)CC1 [D80, 1-{4-[4-(1-Hydroxy-1,3-dihydro-benzo[c][1,2]oxaborol-5-yloxy)-benzoyl]-piperazin-1-yl}-ethanone] | > 10 µM | – | > 10 µM | > 10 µM | > 10 µM | > 10 µM | – |
| OCc1ccc(Oc2ccc3c(c2)COB3O)nc1 [D64, 5-(5-(Hydroxymethyl)pyridin-2-yloxy)benzo[c][1,2]oxaborol-1 (3H)-ol] | 1 to 4 µM | – | 4 to 10 µM | 4 to 10 µM | > 10 µM | 4 to 10 µM | – |
| N#Cc1ccc(Oc2ccc3c(c2)COB3O)nc1NCc1ccccc1 [D121, 2-Benzylamino-6-(1-hydroxy-1,3-dihydro-benzo[c][1,2]oxaborol-5-yloxy)-nicotinonitrile] | < 1 µM | – | < 1 µM | < 1 µM | < 1 µM | 1 to 4 µM | – |
| NCc1ccc(Oc2ccc3c(c2)COB3O)nc1NCCO [D117] | 1 to 4 µM | – | 1 to 4 µM | > 10 µM | 1 to 4 µM | > 10 µM | – |
| N#Cc1ccc(Oc2ccc3c(c2)COB3O)c(CN)c1 [D138, 5-(2-Aminomethyl-4-cyanophenoxy)-1,3-dihydro-1-hydroxy-2,1-benzoxaborole hydrochloride] | – | – | – | – | – | – | IC50 (TNF-α; human PBMC, hydrochloride): 1 to 4 µM; inhibition at 10 µM (IL-2): 60 to 90%; inhibition at 10 µM (IFN-γ): 30 to 60%; inhibition at 10 µM (IL-5): 60 to 90%; inhibition at 10 µM (IL-10): 30 to 60% |

Reference: patent US9012431B2, “Boron-containing small molecules as anti-inflammatory agents” (Anacor Pharmaceuticals, Inc., priority 2008, dated 2015)
